Like-named read-outs stand apart in the source and are kept apart here.
Legend:
M2 receptor = target: T1, M2 receptor (Homo sapiens, UniProt P08172); experiment: BRET real-time monitoring of G-protein activation via M2 in HEK293T/17 cells; assay type: cell-based; parameters: expressed in transfected cells; host or cells: HEK293T/17 cells, transient transfection; conditions: for Activation of Gαi/o and Gα15 types: saturating concentration (100 μM; 1 mM for JB-12-2, JB-13-1)
T1 sequence (P08172 1-466): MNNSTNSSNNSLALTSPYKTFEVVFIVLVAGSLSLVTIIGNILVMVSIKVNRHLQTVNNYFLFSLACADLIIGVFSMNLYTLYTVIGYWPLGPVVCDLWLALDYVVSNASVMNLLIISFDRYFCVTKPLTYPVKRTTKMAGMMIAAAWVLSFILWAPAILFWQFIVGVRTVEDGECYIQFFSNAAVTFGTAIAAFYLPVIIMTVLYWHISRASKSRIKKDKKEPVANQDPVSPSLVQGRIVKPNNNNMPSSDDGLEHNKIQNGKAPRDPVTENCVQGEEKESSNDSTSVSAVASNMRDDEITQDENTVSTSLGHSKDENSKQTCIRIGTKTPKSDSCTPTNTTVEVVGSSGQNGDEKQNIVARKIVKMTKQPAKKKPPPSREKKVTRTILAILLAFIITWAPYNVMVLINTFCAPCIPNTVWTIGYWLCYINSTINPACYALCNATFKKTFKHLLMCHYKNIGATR
Experimental: HE/K293T17 cells were obtained from The Global Bioresource Center ATCC (Manassas, VA, USA). Cells were grown in 100 mm petri dishes in Dulbecco’s modified Eagle’s medium (DMEM) supplemented with 10% fetal bovine serum (FBS), MEM non-essential amino acids, 1 mM sodium pyruvate, and antibiotics (100 units/ml penicillin and 100 μg/ml streptomycin) at 37 °C in a humidified incubator containing 5% CO2[41]. Transfection was performed according to Masuho et al.[41]. Culture dishes (3.5 cm) were coated by incubation for 10 min at 37 °C with 1 ml of Matrigel solution [approximately 10 μg/ml of growth factor-reduced Matrigel (BD biosciences; LOT: 2278001) in culture medium]. For transfections, cells were seeded in the 3.5 cm dishes containing the Matrigel solution at a density of 1.7 × 10^6 cells/dish. Four hours later, the cells were transfected with the appropriate expression constructs (total of 5 μg DNA per dish) with the reagents PLUS (5 μl/dish) and Lipofectamine LTX (Thermo Fisher Scientific; LOT: 2640614) (6 μl/dish). The cells were transfected with the Venus 156-239-Gβ1 (0.21 μg), Venus 1–155-Gγ2 (0.21 μg), and masGRK3ct-Nluc (0.21 μg) constructs in addition to the different amounts of constructs for the M2 receptor and Gα of interest. Gα14 subunit was co-transfected with Ric-8A chaperone (0.21 μg). Cells were cotransfected with a pcDNA3.1 construct encoding the catalytic subunit of pertussis toxin (PTX-S1) (0.21 μg) and constructs encoding Gα15, Gα14, Gα11, Gαq to ensure that the small BRET signals were not contaminated by the possible recruitment of endogenous Gαi/o proteins. The empty vector pcDNA3.1 was used to normalize the amount of DNA in each transfection.
To examine the activation of G-protein signalling in live cells, agonist-dependent cellular measurements of BRET between Venus-Gβ1γ2 and masGRK3ct-Nluc were performed as described by Masuho et al.[41]. […]. Cells were harvested by centrifugation at 500×g for 5 min and were resuspended in BRET buffer. About 50,000 to 100,000 cells per well were distributed in 96-well flat-bottomed white microplates (Greiner Bio-One) in a volume of 25 µl. 25 µl of 2× luciferase substrate: Nano-Glo™ luciferase assay substrate (Promega; LOT: 0000527335) dissolved in 250 volumes of BRET buffer was added. BRET measurements were made with a microplate reader (POLARstar Omega, BMG Labtech) equipped with two emission photomultiplier tubes, which enabled the detection of two emissions simultaneously with the highest possible resolution of 20 ms per data point. All measurements were performed at room temperature. The BRET signal was determined by calculating the ratio of the light emitted by Venus-Gβ1γ2 (535 nm with a 30 nm band path width) to the light emitted by masGRK3ct-Nluc (475 nm with a 30 nm band path width). The average baseline value (basal BRET ratio) recorded before stimulation of cells with an agonist was subtracted from the experimental BRET signal values to obtain the ΔBRET ratio.
The ΔBRET ratio from real-time monitoring of G-protein activation was fitted using monophasic association according to Eq. 9.9 Y=Beq×(1-exp-Kobs×x where y is the ΔBRET ratio of the light emitted by Venus-Gβ1γ2 (535/30) to the light emitted by masGRK3ct-Nluc (475/30). Beq is Y-value at the equilibrium expressing the maximal amplitude of ΔBRET ratio, x is time and Kobs is the observed rate of Gα subunit activation.

M2 muscarinic receptor = target: T2, M2 muscarinic receptor (Homo sapiens, UniProt P08172); experiment: [3H]NMS competition binding, membranes from CHO cells expressing M2
T2 construct: membranes
T2 sequence (P08172 1-466): T1 sequence (P08172 1-466)
Experimental: Cells were cultured as described previously by Randakova et al.[33]. […] The medium was supplemented with 5 mM butyrate for the last 24 h of culture to increase receptor expression. Cells were washed with (phosphate-buffered saline (PBS), mechanically harvested by scraper and centrifugated 1000 × g for 5 min. Cell pellets were kept at − 80 °C.
Membranes were prepared as described previously by Randakova et al.[33]. Cells harvested from twenty 100 mm petri dishes (CHO) or 30 ml of cell suspension (Sf9) were suspended in 20 ml of ice-cold incubation medium (100 mM NaCl, 20 mM Na-HEPES, 10 mM MgCl2, pH 7.4) supplemented with 10 mM EDTA and homogenized on ice by two 30‐s strokes using a Polytron homogenizer (Ultra-Turrax; Janke & Kunkel GmbH & Co. KG, IKA-Labortechnik, Staufen, Germany) with a 30 s pause between strokes. Cell homogenates were centrifuged for 5 min at 1000×g to remove whole cells and cell nuclei. The resulting supernatants were centrifuged for 30 min at 30,000×g. Pellets were suspended in a fresh incubation medium, incubated on ice for 30 min, and centrifuged again. The resulting membrane pellets were kept at − 80 °C until assayed within 10 weeks.
Non-specific binding was determined in the presence of 10 μM unlabelled atropine. Incubations were terminated by filtration through filtration plates multiscreen 96 well Harvest (Merck Millipore) using a Brandel cell harvester (Brandel, Gaithersburg, MD, USA). Filtration plates were dried in a microwave oven, and then 40 μl of liquid scintillator Rotiscint eco plus (Roth) was added. The filtration plates were counted in the Microbeta scintillation counter (PerkinElmer). […] The inhibition constant KI was calculated according to Eq. (2).
Inhibition constants KI were calculated according to Eq. (2).2 KI=IC50/1+D/KD where IC50 is calculated according to Eq.

Structure (SMILES) | Activation of Gαi/o and Gα15 types (M2 receptor) | Ki (M2 muscarinic receptor) [µM] | also measured
C[N+](C)(C)CCOC(N)=O [CBC, carbachol, reference compound] | activated all tested Gαi/o types and promiscuous Gα15 | – | Maximal amplitude at Gi1 as % of GoA (M2 receptor; CBC 100 μM): ~ 25%
c1csc(C[N+]23CCC(CC2)CC3)c1 [JB-8A] | did not detect | 3.24 | –
C[N+]1(Cc2cccs2)CCOCC1 [JB-12-2] | – | 17.4 | Activation of GoA and GoB, % of CBC magnitude (M2 receptor; saturating concentration (JR-6 100 μM, JB-12-2 1 mM)): approximately 12%
COC(=O)C1=CCCN(Cc2cccs2)C1 [JB-13-1] | activated only GαoA | – | Ki (M2 muscarinic receptor; M2, competition with [3H]NMS, mean ± SD, three experiments, read-out: Binding affinity, negative logarithm of Ki (converted)): 23.4 µM
C[N+]1(Cc2ccc(Cl)s2)CC=CCC1 (stereo not shown) [PN-152, 1-[(5-chlorothiophen-2-yl)methyl]-1-methyl-1,2,3,6-tetrahydropyridin-1-ium] | did not detect | – | Experimental binding affinity relative to JR-6 (M2 muscarinic receptor; M2 (Table 1)): ten-times higher

Source: PMC11053168, “Agonist-selective activation of individual G-proteins by muscarinic receptors” (Scientific Reports, 2024)
